Experimental data from patent publication US11667632B2, “2-(1H-indazol-3-yl)-3H-imidazo[4,5-C]pyridines and their anti-inflammatory uses thereof” (BioSplice Therapeutics, Inc., priority 2015, dated 2023).
pEC50: −log10 of the molar value.

Columns and labels:
[1] = Stability and radiochemical purity of the [3H]-Compound 10 formulation incubated at 37° C.; type: physicochemical
Protocol: The stability and radiochemical purity (RCP) of the radiolabeled [^3H]-Compound 10 was established in a concurrent experiment where a formulation of radiolabeled [3^H]-Compound 10 was incubated at 37° C. and radiochemical purity (RCP) of aliquots were analyzed over time and determined to be ˜ 95.5% (Days 0, 7, 14 and 30), 94.5% (Day 60), 93% (Day 90), and 83% (Day 180).

IL-6 [2] = experiment: Inhibition of IL-6 in LPS-stimulated human monocyte cells (THP-1), HTRF; type: cell-based; settings: Homo sapiens; THP-1 cells, LPS 500 ng/mL, IL-6 by HTRF
Procedure, shortened: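 THP-1 cells were kept 24 h in 1% FBS, then given compound (1:3, 10-point series from 10 μM, 0.1% DMSO) for 2 h before 500 ng/mL LPS for 22 h at 37 °C. IL-6 was measured by HTRF 665/620 ratio. EC50 came from four-parameter fits normalized to DMSO, with % inhibition at 10 μM reported when EC50 >10 μM.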

Interleukin 1β (IL1β) = experiment: Inhibition of inflammatory cytokine expression in IL-1β-stimulated synovial fibroblasts, qRT-PCR; type: cell-based; settings: human synovial fibroblasts, IL-1β (100 ng/mL), Compound 10 at 100 nM and 30 nM, 24 hrs; FIG. 14B
Protocol: Synovial fibroblasts were plated in 6-well plates at 0.5 million cells per well in Leibovitz's L-15 Medium with 1% FBS. Compound 10 dissolved in DMSO was added to the wells at different concentrations. […] Cells were harvested by trypsinization, pelleted, washed with PBS and Total RNA was isolated using RNeasy Mini Kit (Qiagen). cDNA was synthesized using the QuantiTect Reverse Transcription kit (Qiagen). qRT-PCR was performed with QuantiTect SYBR Green PCR Kit (Qiagen) and gene-specific primers, using CFX384 (Biorad). Transcripts were quantitated by comparative Ct method and normalized to endogenous controls, β-actin and GAPDH.

TNF-α = experiment: Inhibition of TNF-α in LPS-stimulated primary PBMCs (ELISA, MSD U-plex); type: cell-based; settings: human PBMCs, LPS (500 ng/mL), Compound 10 (150 nM), 24 hrs; MSD platform; FIG. 15
Protocol: (§1) Primary peripheral blood mononuclear cells (PBMCs) freshly isolated from healthy human donors were obtained from AllCells Inc. and utilized for assays immediately. Compound 10 was dissolved in DMSO as a 10 mM stock and used to prepare compound source plates. A serial dilution (8-point dose-response) and compound transfer was performed using the ECHO 550 (Labcyte, Sunnyvale, Calif.) into 96-well clear bottom assay plates (Greiner Bio-One) with appropriate DMSO backfill for a final DMSO concentration of 0.05%. PBMCs were plated at 2×10e^5 cells/well in Roswell Park Memorial Institute (RPMI) 1640 Medium (Catalog #21870-100, Buffalo, N.Y.) with 1% L-glutamine, 1% HEPES, 1% Sodium Pyruvate, 2% Sodium Bicarbonate supplemented with 100 units/mL penicillin, 50 μg/mL streptomycin and 1% fetal bovine serum (Catalog #16140089, Life Technologies, Carlsbad, Calif.). […]
(§2) Supernatants were diluted appropriately for ELISA. […] Following several washes to remove unbound avidin-HRP, the TMB substrate was added and the plates were read on the Cytation 3 plate reader (Biotek Inc., Winooski, Vt.) at an absorbance of 450 nm with correction at 570 nm. […] Inhibition profile and EC50 was calculated using Prism 5 (GraphPad Software Inc, La Jolla, Calif., USA). […] Levels of cytokines were calculated using software form Meso Scale Discovery.

IL-2 = experiment: Inhibition of IL-2 in LPS-stimulated primary PBMCs (MSD U-plex); type: cell-based; settings: human PBMCs, LPS (500 ng/mL), Compound 10 (150 nM), 24 hrs; MSD platform; FIG. 15
Protocol: as §1, §2

IL-6 [3] = experiment: Inhibition of IL-6 in LPS-stimulated primary PBMCs (ELISA, MSD U-plex); type: cell-based; settings: human PBMCs, LPS (500 ng/mL), Compound 10 (150 nM), 24 hrs; MSD platform; FIG. 15
Protocol: as §1, §2

IFN-γ = experiment: Inhibition of IFN-γ in LPS-stimulated primary PBMCs (MSD U-plex); type: cell-based; settings: human PBMCs, LPS (500 ng/mL), Compound 10 (150 nM), 24 hrs; MSD platform; FIG. 15
Protocol: as §1, §2

With `CC(C)CC(=O)Nc1cncc(-c2ccc3[nH]nc(-c4nc5c(-c6cccc(F)c6)cncc5[nH]4)c3c2)c1` [Compound 10] the “radiochemical purity (RCP) of formulation over time” value (shortened to “radiochemical purity … over time”) ([1]; Day 60) was 94.5%, the “radiochemical purity … over time” value ([1]; Day 90) was 93% and the “radiochemical purity … over time” value ([1]; Day 180) was 83%. The “radiochemical purity … over time” value ([1]; Days 0, 7, 14 and 30) was about 95.5%, the pEC50 (IL-6 [2]) was 7.89 and the “inhibition of inflammatory cytokine secretion (qRT-PCR)” value (Interleukin 1β (IL1β)) was “inhibition”. The “Inhibition of TNF-α” value (TNF-α) was “Inhibition”, the “Inhibition of IL-2” value (IL-2) was “Inhibition” and the “Inhibition of IL-6” value (IL-6 [3]) was “Inhibition”. The “Inhibition of IFN-γ” value (IFN-γ) was “Inhibition”.
